“Also recorded” adds a separate entry of the source. Ends that are not written are not given here.
Columns and labels:
[1] = biological target: T1, µ-opioid receptor (µOR) (Rattus norvegicus, UniProt P33535); assay: Saturation binding of [^3H]DAMGO with varying G-peptide concentrations; format: Wistar rat (brain membranes)
[2] = biological target: T1, µ-opioid receptor (µOR); format: binding, Wistar rat (brain membranes)

T1 sequence (P33535 whole entry): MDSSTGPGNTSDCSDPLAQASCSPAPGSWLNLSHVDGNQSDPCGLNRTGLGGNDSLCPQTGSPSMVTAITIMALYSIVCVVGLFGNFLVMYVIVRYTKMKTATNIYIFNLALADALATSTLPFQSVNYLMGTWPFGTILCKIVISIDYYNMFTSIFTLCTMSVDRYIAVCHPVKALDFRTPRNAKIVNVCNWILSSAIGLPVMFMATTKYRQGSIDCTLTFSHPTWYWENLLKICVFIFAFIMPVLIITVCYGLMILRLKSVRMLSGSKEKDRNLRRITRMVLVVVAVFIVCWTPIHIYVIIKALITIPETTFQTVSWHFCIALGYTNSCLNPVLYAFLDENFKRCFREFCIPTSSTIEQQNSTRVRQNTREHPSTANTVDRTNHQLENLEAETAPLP

Substance: IIKNNLKDCGLF-NH2 [G-peptide]
- affinity increase caused by the G-peptide ([1]; saturation experiments for [H^3]DAMGO): dose dependency of the affinity increase
- lowest G-peptide concentration affecting the binding ([1]; saturation experiments with radio-ligand): 10 µM
- Bmax of DAMGO upon adding G-peptide ([1]; two sets of experiments, G-peptide 0.01 to 25 µM and 0.01 to 200 µM): concentration-dependent decrease in the Bmax value of DAMGO
- equilibrium dissociation constant Kd and Bmax of DAMGO upon adding G-peptide ([1]; varying concentrations of the G-peptide): change in both the equilibrium dissociation constant Kd and Bmax
- G-peptide concentration needed for characteristic shift in the binding curve of morphine [2]: ≥ 100 µM
- affinity of the peptide [2]: micromolar level; also recorded: micromolar range
- allosteric modulation of µOR [2]: binds the µ-opioid receptor and acts as an allosteric modulator
- dose dependence of G-peptide effect on morphine binding [2]: increases µOR affinity for its agonist morphine in a dose-dependent way
- orthosteric binding of the G-peptide [2]: no significant orthosteric coupling to µOR; also recorded: inactive through the orthosteric binding site of µOR; also recorded: did not interact directly with the orthosteric binding site
